Measured values taken from article PMC11352099 (RSC Medicinal Chemistry, 2024).
Where two headings read alike, the source gives them in different places.

Experiments:
[1] = target: SARS-CoV-2 nsp14 MTase (Severe acute respiratory syndrome coronavirus 2, UniProt P0DTD1); assay: biochemical; type: biochemical; conditions: for IC50: read-out: IC50
[2] = target: human RNMT (Homo sapiens, UniProt O43148); assay: Off-target inhibition of human RNMT; type: biochemical; conditions: 25 μM concentration of inhibitor
From the text: Human cells rely on several MTases; therefore, it is necessary to assess the possible off-target effect. […]

[3] = in vitro; conditions: human
Procedure: (§1) 3.5. Caco-2 permeability assay
(§2) Transepithelial bi-directional transport of compounds (10 µM, pH 7.4/7.4) was tested on 21-day differentiated Caco-2 monolayers. Briefly, the cells were seeded at a density of 67 ,500 cells per 96-well plate insert (Millicell®, Merck KGaA, Darmstadt, Germany). They were left to differentiate for 21 days with medium exchange every 2–3 days. Prior to the experiment, the medium from both apical and basolateral well was exchanged for HBSS buffer (containing 10 mM HEPES and 25 mM glucose) and left to equilibrate for 30 min. Compound permeability was assayed by replacing pure HBSS with HBSS containing 10 μM compounds and 220 μM Lucifer yellow (LY) solution in an apical insert (A to B transport) or in a basolateral well (B to A transport). The tre ated cells were then returned to the incubator for 2 h at 37 °C. After that, samples were collected from both apical inserts and basolateral wells and analyzed using LC -MS/MS (SCIEX Triple Quad™ 7500 QTRAP® Ready). LC separation was done on Synergi 4µm Fusion 50 × 2 mm column (Phenomenex) using a water/acetonitrile gradient with 0.1% formic acid starting from 2 to 98% for 4.5 min.
(§3) The apparent permeability coefficient (Papp) was calculated from t he following equation: Papp = (dQ / dt) / C0 * A, where dQ/dt is the rate of absorption of the drug across the cells, C0 is the donor compartment concentration at time zero, and A is the area of the monolayer. Efflux ratio was expressed as (Papp B -A) / (Papp A-B). Recovery (%) was determined as (total compound mass i n donor and receiver compartments at the end of the incubation / initial compound mass in the donor compartment) x 100. The data represent means ± SD of two independent experiments performed in triplicate. […]
(§4) were used as control compounds.

[4] = test system: Caco-2 monolayers; assay: in vitro; conditions: Caco-2
Procedure: as §1, §2, §3, §4

[5] = test system: SARS-CoV-2 strain hCoV-19/Czech Republic/NRL_6632_2/2020; assay: microbe, parasite or virus in culture; type: cell-based; conditions: Calu-3 cell line
[6] = 120 min, 10 μM
[7] = 120 min, 10 μM; remark: listed apart in the source
[8] = microsomes, 0.75 h, 10 µM, pH 7.4
[9] = microsomes, 0.75 h, 10 µM, pH 7.4; remark: listed apart in the source
[10] = in vitro; conditions: mouse, plasma
[11] = in vitro; conditions: human; remark: listed apart in the source

Chain of human RNMT (O43148 whole entry): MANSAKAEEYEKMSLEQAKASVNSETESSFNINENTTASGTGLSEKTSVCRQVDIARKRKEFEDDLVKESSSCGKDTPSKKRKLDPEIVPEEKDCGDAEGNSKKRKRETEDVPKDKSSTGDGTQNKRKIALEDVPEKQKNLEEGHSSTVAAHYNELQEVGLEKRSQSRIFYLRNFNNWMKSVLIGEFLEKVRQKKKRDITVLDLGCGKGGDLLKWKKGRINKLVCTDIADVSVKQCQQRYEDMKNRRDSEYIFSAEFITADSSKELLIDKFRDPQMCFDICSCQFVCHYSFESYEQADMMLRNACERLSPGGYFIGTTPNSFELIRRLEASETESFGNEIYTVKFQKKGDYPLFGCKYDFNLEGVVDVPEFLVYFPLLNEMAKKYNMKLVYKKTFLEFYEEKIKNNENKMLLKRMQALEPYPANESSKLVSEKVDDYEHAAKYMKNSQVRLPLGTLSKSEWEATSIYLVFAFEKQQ

SMILES: Cc1cc(=O)[nH]c2cc(NC(=O)[C@H]3O[C@@H](n4cc(C#Cc5cncnc5)c5c(N)ncnc54)[C@H](O)[C@@H]3O)ccc12 [18n]
- IC50 ([1]; Table 1 and text, N.I., no inhibition): 0.043 ± 0.005 µM
- Hill slope ([1]; Table S1, dose-response curve, variable slope model): -1.29
- IC50 ([1]; values printed in Fig. 3 (correlation with GlideScore XP)): 0.04 µM
- inhibitory activity against RNMT [2]: None of the tested compounds exhibited any inhibitory activity
- efflux ratio at 2 h, 10 µM ([3]; Caco-2): 0.6
- recovery at 2 h, 10 µM ([3]; Caco-2, Recovery (%) A-B): 148%
- recovery at 2 h, 10 µM ([3]; Caco-2, Recovery (%) B-A): 110%
- Papp A→B at 2 h, 10 µM ([3]; Caco-2, pH 7.4): 11.3 ± 3.7 ×10⁻⁶ cm/s
- Papp B→A at 2 h, 10 µM ([3]; Caco-2, pH 7.4): 7.3 ± 1.3 ×10⁻⁶ cm/s
- Papp A-B [4]: 11.3 ± 3.7 cm/s x 10-6
- Papp B-A [4]: 7.3 ± 1.3 cm/s x 10-6
- EC50 ([5]; Severe acute respiratory syndrome coronavirus 2, 72 h, MOI ∼0.01, 3 days, read-out: EC50 (antiviral effect)): 10 ± 3 µM
- EC50 ([5]; Severe acute respiratory syndrome coronavirus 2, Table S3, read-out: EC50): 9.8 µM
- Plasma stability % of the parent compound after 120 min, Human [6]: 93 ± 0.4%
- Plasma stability % of the parent compound after 120 min, Mouse [7]: 41 ± 0.7%
- Microsomal stability % of the parent compound after 45 min, Human [8]: 90 ± 2.0%
- Microsomal stability % of the parent compound after 45 min, Mouse [9]: 85 ± 0.6%
- half-life at 2 h, 10 µM [10]: 1.57 h
- CC50 at 3 days [11]: > 50 µM
